Laboratory results reported in patent US4550118A, “Heterocyclic compounds” (Ikeda Mohando Co., Ltd., priority 1982, dated 1985).

How the values were obtained:
[1] = tested on: acid secretion in pylorus-ligated rats; assay: Anti-secretory effect (histamine-stimulated gastric acid secretion) in pylorus-ligated rat; type: in vivo, male wistar rats; settings: 30 min before histamine 3 mg/kg s.c., ** at 1% vs control; for inhibition in vivo at 2 mg/kg: Rattus norvegicus, sc, 3 h, 2 mg/kg s.c., n=5, * significant at 5%, read-out: inhibitory effect of acid secretion (%) at 2 mg/kg s.c.
Method: (A) Anti-secretory Effect in Pylorus-ligated Rat
After 24 hr fasting, male wistar rats weighing about 160 g were anesthetized by intraperitoreal injection of urethans 1.2 g/kg. Then, after ligating the pylorus and the esophagus, the proventriculus was incised and a double polyethylene cannula was inserted. The gastric wall was washed out with 5 ml of physiological saline every 30 minutes and the amount of acid contained in the saline after washing was measured by titration. After measuring the basal acid secretion of the pylorus ligated rats three times, the compounds of the invention, 2 mg/kg, were administered subcutaneously and, 30 minutes thereafter, histamine 3 mg/kg, was administered also subcutaneously. Then, the amounts of acid secretion were measured for 3 hours. […] Then, an inhibition rate was calculated in accordance with the following formula, in relation to the increment values measured for the control group. [formula]
One group included five examples.

[2] = biological target: T1, histamine H2 receptor in atria (Cavia porcellus, UniProt P47747); assay: Histamine H2 receptor inhibition effect by isolated guinea pig right atrium preparation (negative chronotropic effect); type: cell-based, Male Hartley Guinea Pig; settings: 5×10^-6 mol sample 3 minutes prior to histamine, mean of five; for Kb: read-out: inhibitory effect of histamine H2 receptor in atria (pA2 value) (converted)
T1 construct: right atrium was isolated; from tissue; host or cells: isolated right atrium of male Hartley guinea pig
Method: (B) Measurement of Histamine H2 Receptor Inhibition Effect by Isolated Guinea Pig Right Atrium Preparation
Male Hartley Guinea Pig weighing around 400 g was sacrified by decapitation, and right atrium was isolated. The right atrium was suspended in an organ bath (50 ml) containing modified Ringer solution. Under application of a tensile load of 1 g, the heart rate was recorded by means of a polygraph. Histamine was applied cumulatively from 1×10^-7 mol to 3×10^-4 mol and a cumulative dosage response curve was drawn. Then, 5×10^-6 mol of the sample was administered 3 minutes prios to histamine application. The negative logarithmic value (pA2) of the specimen molarity required for shifting the curve to the right to double concentration was calculated.

T1 sequence (P47747 whole entry): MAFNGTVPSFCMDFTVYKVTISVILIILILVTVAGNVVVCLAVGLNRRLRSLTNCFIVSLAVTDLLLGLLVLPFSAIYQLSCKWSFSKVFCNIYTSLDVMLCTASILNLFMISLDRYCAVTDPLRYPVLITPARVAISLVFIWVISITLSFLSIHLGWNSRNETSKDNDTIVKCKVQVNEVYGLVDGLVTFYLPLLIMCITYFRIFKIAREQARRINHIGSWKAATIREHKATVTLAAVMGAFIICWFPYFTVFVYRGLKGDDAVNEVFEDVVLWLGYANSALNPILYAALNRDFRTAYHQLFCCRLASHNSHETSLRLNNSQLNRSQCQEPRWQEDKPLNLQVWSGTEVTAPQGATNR

Compound | Kb [2] [µM] | inhibitory effect of histamine H2 receptor in atria (pA2 value) [2] | inhibition in vivo at 2 mg/kg [1] [%] | inhibitory effect of acid secretion (%) at 2 mg/kg s.c. ([1]; n=5, * significant at 5%) [%]
CNC(=NC#N)NCCCCOc1ccc2[nH]c(CN(C)C)nc2c1 [Example 2, N-cyano-N'-methyl-N"-[4-<5-(2-dimethylaminomethylbenzimidazolyl)oxy>butyl]guanidine] | 1.51 |  | 75 | 
CNc1n[s+]([O-])nc1NCCSCc1ccc2[nH]c(CN(C)C)nc2c1 (stereo not drawn) [Example 106, 3-[2-<5-(2-dimethylaminomethylbenzimidazolyl)methylthio>ethyl]amino-4-methylamino-1,2,5-thiadiazole-1-oxide] | 0.537 |  | 89 | 
CN(C)Cc1nc2cc(CSCCC(N)=NS(N)(=O)=O)ccc2[nH]1 [Example 121, N-sulfamoyl-3-[5-(2-dimethylaminomethylbenzimidazolyl)methylthio]propionamidine] | 0.562 |  | 76 | 
1-methyl-3-pyridylideneimino-5-[2-<5-(2-dimethylaminomethylbenzimidazolyl)methylthio>ethyl]-1H-1,2,4-triazole-5-amine [Example 100] |  | 5.75 |  | 72
CN(C)Cc1nc2cc(CSCCNc3ncc(Cc4cccnc4)c(=O)[nH]3)ccc2[nH]1 [Example 76, 2-[2-<5-(2-dimethylaminomethylbenzimidazolyl)methylthio>ethylamino]-5-(3-pyridylmethyl)-4-pyrimidone] | 1.23 |  | 102 | 
CNC(=NC#N)NCCCSCc1ccc2[nH]c(CN(C)C)nc2c1 [Example 37, N-cyano-N'-methyl-N"-[3-<5-(2-dimethylaminomethylbenzimidazolyl)methylthio>propyl]guanidine] | 1.66 |  | 38 | 
CCNc1n[s+]([O-])nc1NCCCOc1ccc2[nH]c(CN(C)C)nc2c1 (stereo not drawn) [Example 102, 3-[3-<5-(2-dimethylaminomethylbensimidazolyl)oxi>propyl]amino-4-ethylamino-1,2,5-thiadiazol-1-oxide] | 2.19 |  | 68 | 
CN(C)Cc1nc2cc(OCCCNc3nnc(Cc4cccnc4)c(=O)[nH]3)ccc2[nH]1 [Example 83, 3-[3-<5-(2-dimethylaminomethylbenzimidazolyl)oxy>propylamino]-6-(3-pyridylmethyl)-1,2,4-triazine-5-one] | 4.07 |  | 78 | 
CN(C)Cc1nc2cc(OCCCNc3ncc(Cc4ccc5c(c4)OCO5)c(=O)[nH]3)ccc2[nH]1 [Example 62, 5-[5-(1,3-benzodioxolyl)methyl]-2-[3-<5-(2-dimethylaminomethylbenzimidazolyl)oxy>propylamino]-4-pyrimidone] | 0.631 |  | 84 | 
CCNc1n[s+]([O-])nc1NCCCSc1ccc2[nH]c(NC(=N)N)nc2c1 (stereo not drawn) [Example 113, 3-N-[3-<5-(2-guanidinobenzimidazolyl)thio>propyl]amino-4-ethylamino-1,2,5-thiadiazole-1-oxide] | 8.51 |  | 63 | 
CN(C)Cc1nc2cc(CSCCCC(N)=NS(N)(=O)=O)ccc2[nH]1 [Example 122, N-sulfamoyl-4-[5-(2-dimethylaminomethylbenzimidazolyl)methylthio]butyroamidine] | 2.45 |  | 32 | 
C#CCNC(=C[N+](=O)[O-])NCCSCc1ccc2[nH]c(CN(C)C)nc2c1 [Example 44, 1-nitro-2-propargylamino-2-[2-<5-(2-dimethylaminomethylbenzimidazolyl)methylthio>ethylamino]ethylene] | 0.631 |  | 57 | 
CN(C)Cc1nc2cc(OCCCNc3nc(N)nn3C)ccc2[nH]1 [Example 91, 1-methyl-5-[3-<5-(2-dimethylaminomethylbenzimidazolyl)oxy>propyl]-1H-1,2,4-triazole-3,5-diamine] | 6.46 |  | 81 | 
Nc1n[s+]([O-])nc1NCCCOc1ccc2[nH]c(CN3CCCCC3)nc2c1 (stereo not drawn) [Example 101] | 2.95 |  | 97 | 
CN(C)Cc1nc2cc(CSCCNc3nc(N)n[nH]3)ccc2[nH]1 [Example 96, 5-[2-<5-(2-dimethylaminomethylbenzimidazolyl)methylthio>ethyl]-1H-1,2,4-triazole-3,5-diamine] | 0.933 |  |  | 

Continued, in another order:

Kb [2] [µM] | inhibitory effect of histamine H2 receptor in atria (pA2 value) [2] | Compound | inhibition in vivo at 2 mg/kg [1] [%] | inhibitory effect of acid secretion (%) at 2 mg/kg s.c. ([1]; n=5, * significant at 5%) [%]
0.832 |  | CN(C)Cc1nc2cc(CSCCNC(N)=NC#N)ccc2[nH]1 [Example 34, N-cyano-N'-[2-<5-(2-dimethylaminomethylbenzimidazolyl)methylthio>ethyl]guanidine] | 52 | 
2.45 |  | CNC(=C[N+](=O)[O-])NCCCOc1ccc2[nH]c(CN3CCCC3)nc2c1 [Example 28, 1-nitro-2-methylamino-2-[3-<5-(2-(1-pyrrolidinomethyl)benzimidazolyl)oxy>propylamino]ethylene] | 64 | 
1.17 |  | CNC(=NC#N)NCCCOc1ccc2[nH]c(CN3CCCC3)nc2c1 [Example 3] | 54 | 
1.45 |  | CCNc1n[s+]([O-])nc1NCCSCc1ccc2[nH]c(CN(C)C)nc2c1 (stereo not drawn) [Example 108, 3-[2-<5-(2-dimethylaminomethylbenzimidazolyl)methylthio>ethyl]amino-4-ethylamino-1,2,5-thiadiazole-1-oxide] | 77 | 
4.07 |  | O=c1[nH]c(NCCCOc2ccc3[nH]c(CN4CCCC4)nc3c2)ncc1Cc1ccc2c(c1)OCO2 [Example 63, 5-[5-(1,3-benzodioxolyl)methyl]-2-[3-<5-(2-(1-pyrrolidinomethyl)benzimidazolyl)oxy>propylamino]-4-pyrimidone] | 78 | 
 | 6.08 | Nc1n[s+]([O-])nc1NCCSCc1ccc2[nH]c(CN3CCCCC3)nc2c1 (stereo not drawn) [Example 105, 3-{2-[5-<2-(1-piperidinomethyl)benzimidazolyl>methylthio]ethyl}amino-4-amino-1,2,5-thiadiazole-1-oxide] | 92 | 
0.631 |  | CN(C)Cc1nc2cc(CSCCNc3ncc(CN(C)C)c(=O)[nH]3)ccc2[nH]1 [Example 73, 2-[2-<5-(2-dimethylaminomethylbenzimidazolyl)methylthio>ethylamino]-5-dimethylaminomethyl-4-pyrimidone] | 91 | 
1.38 |  | CNC(=NC#N)NCCCOc1ccc2[nH]c(CN3CCCCC3)nc2c1 [Example 5, N-cyano-N'-methyl-N"-{3-[5-<2-(1-piperidinomethyl)benzimidazolyl>oxy]propyl}guanidine] | 65 | 
0.891 |  | O=c1ccnc(NCCCOc2ccc3[nH]c(CN4CCCCC4)nc3c2)[nH]1 [Example 59, 2-[3-<5-(2-(1-piperidinomethyl)benzimidazolyl)oxy>propylamino]-4-pyrimidone] | 74 | 
1.17 |  | CN(C)Cc1nc2cc(CSCCNC(N)=NS(=O)(=O)c3ccccc3)ccc2[nH]1 [Example 46, N-benzenesulfonyl-N'-[2-<5-(2-dimethylaminomethylbenzimidazolyl)methylthio>ethyl]guanidine] | 72 | 
1.95 |  | O=c1[nH]c(NCCCOc2ccc3[nH]c(CN4CCCCC4)nc3c2)nnc1Cc1cccnc1 [Example 85, 3-{3-[5-<2-(1-piperidinomethyl)benzimidazolyl>oxy]propylamino}-6-(3-pyridylmethyl)-1,2,4-triazine-5-one] | 46 | 
